Data from EP0476944B1, “Aromatase inhibiting 4(5)-imidazoles” (ORION-YHTYMÄ OY, priority 1990, dated 1992).

Experiment: Acute toxicity, oral, in mice
Details: mouse, in vivo; oral administration; young adult female mice of NMRI-strain; read-out: Acute toxicity, LD₅₀
Procedure: Acute toxicity, LD₅₀, was determined by using young adult female mice of NMRI-strain. The administration was oral. The LD₅₀-value for 4-[2,4-bis(4-fluorophenyl)butyl]-1H-imidazole was 400 mg/kg.

Compound `Fc1ccc(CCC(Cc2c[nH]cn2)c2ccc(F)cc2)cc1` (stereo not shown) [Compound 3, 4-[2,4-bis(4-fluorophenyl)butyl]-1H-imidazole] has an LD50 of 400 mg/kg.
